The source of these data is patent US20060247320A1, “Compounds for inhibiting KSP kinesin activity” (priority 2005, published 2006).

pIC50: −log10 of the molar value.

The target in the first assay is T1, KSP motor domain (Homo sapiens, UniProt P52732).
T1 sequence (P52732 18-359 limits assumed): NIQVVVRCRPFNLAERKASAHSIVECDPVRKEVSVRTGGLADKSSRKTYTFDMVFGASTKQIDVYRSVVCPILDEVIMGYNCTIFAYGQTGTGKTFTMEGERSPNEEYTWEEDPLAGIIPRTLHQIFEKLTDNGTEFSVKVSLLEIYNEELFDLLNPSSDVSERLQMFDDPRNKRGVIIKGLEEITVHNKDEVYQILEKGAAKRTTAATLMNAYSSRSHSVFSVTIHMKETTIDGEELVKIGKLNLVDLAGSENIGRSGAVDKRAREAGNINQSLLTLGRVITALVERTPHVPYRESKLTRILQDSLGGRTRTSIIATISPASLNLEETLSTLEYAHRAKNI
As to the kind of experiment: biochemical. The settings on record: KSP inhibitory activity, end-point assay; class symbols (Table 1); read-out: IC50.
Consider `CC(C)(C)[C@@H]1CCc2nc3sc(C(=O)N[C@H](CN)c4cccc(NC(=O)c5cncc(N)n5)c4)cc3cc2C1` [Example 260], for which the pIC50 – broadly, the negative decadic logarithm of the IC50, by convention in mol/L – is > 7.00.
With `CC(C)(C)[C@@H]1CCc2nc3sc(C(=O)N[C@H](CN)c4cccc(NC(=O)c5nccnc5N)c4)cc3cc2C1` [Example 261], the pIC50 is > 7.00.
Consider `CC(C)(C)[C@@H]1CCc2nc3sc(C(=O)N[C@H](CN)c4cccc(NC(=O)c5ccco5)c4)cc3cc2C1` [Example 262, 6-tert-Butyl-5,6,7,8-tetrahydrothieno[2,3-b]quinoline-2-carboxylic acid (2-amino-1-{3-[(furan-2-carbonyl)amino]phenyl}ethyl)amide], for which the pIC50 is > 7.00.
In the case of `CC(C)(C)[C@@H]1CCc2nc3sc(C(=O)N[C@H](CN)c4cccc(NC(=O)c5ncco5)c4)cc3cc2C1` [Example 263, 6-tert-butyl-5,6,7,8-tetrahydrothieno[2,3-b]quinoline-2-carboxylic acid (2-amino-1-{3-[(oxazole-2-carbonyl)amino]phenyl}ethyl)amide], the pIC50 is > 7.00.
Take `CC(C)(C)C1CCc2nc3sc(C(=O)NC(CNCCO)c4cccc(NC(=O)c5ccco5)c4)cc3cc2C1` (stereo not drawn) [Example 264, 6-tert-butyl-5,6,7,8-tetrahydrothieno[2,3-b]quinoline-2-carboxylic acid [1-{3-[(furan-2-carbonyl)amino]phenyl}-2-(2-hydroxyethylamino)ethyl]amide]: the pIC50 was > 7.00.
On to `CC(C)(C)[C@@H]1CCc2nc3sc(C(=O)N[C@H](CNCCO)c4cccc(NC(=O)c5ncco5)c4)cc3cc2C1` [Example 265, 6-tert-Butyl-5,6,7,8-tetrahydrothieno[2,3-b]quinoline-2-carboxylic acid (2-(2-hydroxy-ethylamino)-1-{3-[(oxazole-2-carbonyl)amino]phenyl}ethyl)amide], for which the pIC50 was > 7.00.
Turning to `Cc1cc(C(=O)Nc2cccc([C@@H](CNCCO)NC(=O)c3cc4cc5c(nc4s3)CC[C@@H](C(C)(C)C)C5)c2)no1` [Example 266, 6(R)-tert-butyl-5,6,7,8-tetrahydro-thieno[2,3-b]quinoline-2-carboxylic acid (2-(2-hydroxy-ethylamino)-1(S)-{3-[(5-methyl-isoxazole-3-carbonyl)-amino]-phenyl}-ethyl)-amide], the pIC50 was > 7.00.
The same measure, in the same setting: to `Cn1nccc1C(=O)Nc1cccc([C@@H](CNCCO)NC(=O)c2cc3cc4c(nc3s2)CC[C@@H](C(C)(C)C)C4)c1` [Example 267] belongs 6.00 to 7.00; to `Cn1ccc(C(=O)Nc2cccc([C@@H](CNCCO)NC(=O)c3cc4cc5c(nc4s3)CC[C@@H](C(C)(C)C)C5)c2)n1` [Example 268], > 7.00; to `CC(C)(C)[C@@H]1CCc2nc3sc(C(=O)N[C@H](CN)c4ccc(NC(=O)c5cnccn5)cc4)cc3cc2C1` [Example 269, 6(R)-tert-Butyl-5,6,7,8-tetrahydro-thieno[2,3-b]quinoline-2-carboxylic acid (2-amino-1(S)-{4-[(pyrazine-2-carbonyl)-amino]-phenyl}-ethyl)-amide], > 7.00.
For the compound `CC(C)(C)[C@@H]1CCc2nc3sc(C(=O)N[C@H](CN)c4ccc(NC(=O)c5cscn5)cc4)cc3cc2C1` [Example 270], the pIC50 was > 7.00.
Same read-out and setting: to `CC(C)(C)[C@@H]1CCc2nc3sc(C(=O)N[C@H](CN)c4ccc(NC(=O)c5cocn5)cc4)cc3cc2C1` [Example 271] belongs > 7.00.
On the same count and under the same terms, for `Cc1ncnc(C)c1C(=O)Nc1ccc([C@@H](CN)NC(=O)c2cc3cc4c(nc3s2)CC[C@@H](C(C)(C)C)C4)cc1` [Example 272] the value was > 7.00.
Turning to `CC(C)(C)[C@@H]1CCc2nc3sc(C(=O)N[C@H](CN)c4ccc(NC(=O)c5ccco5)cc4)cc3cc2C1` [Example 273, 6(R)-tert-Butyl-5,6,7,8-tetrahydro-thieno[2,3-b]quinoline-2-carboxylic acid (2-amino-1(S)-{4-[(furan-2-carbonyl)-amino]-phenyl}-ethyl)-amide], the pIC50 is > 7.00.

The assay is the same for the next values; noted with them: exact IC50 values, end-point assay (Table 2); read-out: IC50.
Turning to `CC(C)(C)[C@@H]1CCc2nc3sc(C(=O)N[C@H](CN)c4ccc(NC(=O)c5ccco5)cc4)cc3cc2C1` [Example 273, 6(R)-tert-Butyl-5,6,7,8-tetrahydro-thieno[2,3-b]quinoline-2-carboxylic acid (2-amino-1(S)-{4-[(furan-2-carbonyl)-amino]-phenyl}-ethyl)-amide], the pIC50 was 7.77.
